Among the test systems are KM12 colon; DU-145 prostate; SF-539 CNS; NCI-H522 lung; LOX IMVI melanoma; OVCAR-3 ovarian; T-47D breast; BT-549 breast; SW-620 colon; SF-295 CNS.
Common to all, as to test: NCI-60 cell line screen, 48 h

Values joined by “and” are separate entries in the source; they are usually repeats but may differ in a detail not shown here. Equal entries are not always repeated.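 Exposure lasted 48 hours, with cells grown in 96-well plates and compounds tested at five concentrations. GI50 marks 50% less growth. TGI: total growth inhibition.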 Some results are limits rather than exact numbers.

On to `O=C1CC(NC(=O)C(F)(F)F)c2c1csc2Br` (centres undefined), for which the TGI in the test with KM12 colon, with DU-145 prostate, in the test with SF-539 CNS, with NCI-H522 lung, in the test with LOX IMVI melanoma and in the test on OVCAR-3 ovarian was more than 100 µM throughout. Also, the TGI in the test on T-47D breast, with BT-549 breast, in the test on SW-620 colon and in the test with SF-295 CNS was more than 100 µM each time.

With `CSc1ccc(C2=NN(C(=O)c3ccc(F)cc3)C(c3ccc(F)cc3)C2)cc1` (centres undefined), the GI50 in the test on KM12 colon is 2.2 µM; in the test with DU-145 prostate, 14.6 µM; in the test with SF-539 CNS it was 19.4 µM; in the test on NCI-H522 lung, 13.3 µM; in the test on LOX IMVI melanoma it was 3.62 µM; with OVCAR-3 ovarian it was 10.3 µM. The GI50 was 12.2 µM with T-47D breast, 15.1 µM in the test with BT-549 breast, 14.2 µM with SW-620 colon and 17.9 µM with SF-295 CNS. Besides, the TGI is 5.83 µM in the test with KM12 colon; 29.3 µM in the test with DU-145 prostate; 38.1 µM with SF-539 CNS; 27.7 µM with NCI-H522 lung; 12.3 µM in the test with LOX IMVI melanoma; 22.5 µM with OVCAR-3 ovarian. In addition, the TGI in the test with T-47D breast stood at 31.2 µM; with BT-549 breast, 30 µM; in the test with SW-620 colon, 34.2 µM; in the test on SF-295 CNS, 33.7 µM.

`COc1cc(OC)c(/C=C/S(=O)(=O)Cc2cnc(OC)c(N)c2)c(OC)c1`: the GI50 with KM12 colon was less than 0.0157 µM; in the test on DU-145 prostate, less than 0.0202 µM; in the test on NCI-H522 lung, less than 0.01 µM; in the test with LOX IMVI melanoma it was less than 0.0233 µM; in the test with OVCAR-3 ovarian it was 0.0264 µM; with BT-549 breast, less than 0.0256 µM. The values for the GI50 with SW-620 colon and in the test on SF-295 CNS were less than 0.0188 µM and less than 0.0133 µM, respectively. The TGI in the test on KM12 colon was more than 100 µM; in the test with DU-145 prostate, more than 100 µM; with LOX IMVI melanoma it was more than 100 µM; with OVCAR-3 ovarian it was more than 100 µM; in the test with BT-549 breast, more than 74.6 µM; in the test on SW-620 colon, more than 100 µM. The molecule further yielded a TGI in the test with SF-295 CNS of more than 100 µM.

On to `CCN1CCN(C(=O)[C@]23CC[C@@H](C)[C@H](C)[C@@H]2C2=CC[C@@H]4[C@@]5(C)C/C(=C/c6ccncc6)C(=O)C(C)(C)[C@@H]5CC[C@@]4(C)[C@]2(C)CC3)CC1`, for which the GI50 was 1.87 µM with KM12 colon; 1.87 µM in the test on DU-145 prostate; 1.73 µM in the test with SF-539 CNS; 1.51 µM in the test on LOX IMVI melanoma; 1.56 µM in the test with OVCAR-3 ovarian; 1.56 µM with T-47D breast. Further, the GI50 in the test with BT-549 breast is 1.78 µM; in the test with SW-620 colon it was 1.71 µM; in the test on SF-295 CNS it was 1.55 µM. The TGI in the test on KM12 colon amounted to 3.66 µM; in the test on DU-145 prostate it was 3.43 µM; with SF-539 CNS it was 3.11 µM; in the test with LOX IMVI melanoma, 2.98 µM; in the test on OVCAR-3 ovarian, 2.94 µM; in the test on T-47D breast, 3.49 µM. The TGI is 3.78 µM with BT-549 breast, 3.7 µM in the test with SW-620 colon and 2.88 µM with SF-295 CNS.

In the case of `CCOC(=O)C(Cc1c[nH]c2ccc(N)cc12)(NC(C)=O)C(=O)OCC`, the GI50 with KM12 colon, in the test on DU-145 prostate, in the test on SF-539 CNS, with NCI-H522 lung, in the test on LOX IMVI melanoma and in the test on OVCAR-3 ovarian was more than 1000 µM throughout. For the same molecule, the GI50 with T-47D breast is 728 µM; in the test on BT-549 breast it was 588 µM; with SW-620 colon, more than 1000 µM; with SF-295 CNS, more than 1000 µM. Further, the TGI in the test on KM12 colon, with DU-145 prostate, in the test on SF-539 CNS, in the test with NCI-H522 lung, in the test on LOX IMVI melanoma and in the test with OVCAR-3 ovarian was more than 1000 µM throughout. Besides, the TGI in the test on T-47D breast, in the test on BT-549 breast, with SW-620 colon and with SF-295 CNS was more than 1000 µM in each case.

Take `CC(=O)N[C@H]1C=C[C@@H]2/C=C(C)/C=C/[C@@H](C)[C@H]([C@H](C)[C@H](O)[C@@H](C)NC(C)=O)OC(=O)/C=C/C=C(C)\C=C\[C@]2(C)C1`: the GI50 in the test with KM12 colon was 0.0246 µM and 0.0045 µM; in the test with DU-145 prostate, 0.0294 µM and 0.00897 µM; with SF-539 CNS, 0.0107 µM and 0.0045 µM; in the test on NCI-H522 lung, 0.0368 µM and 0.00931 µM; with LOX IMVI melanoma, 0.00734 µM and < 0.0045 µM; in the test on OVCAR-3 ovarian, 0.0045 µM. Further, the GI50 with T-47D breast is 0.0131 µM and 0.0045 µM; in the test with BT-549 breast, 0.023 µM and 0.0045 µM; with SW-620 colon, 0.0178 µM and 0.0045 µM; with SF-295 CNS it was 0.00449 µM and 0.0045 µM. In addition, the TGI was 4.65 µM and > 45 µM with KM12 colon; 4.65 µM and > 45 µM in the test with DU-145 prostate; 4.65 µM and 24.6 µM in the test with SF-539 CNS; 4.65 µM and 8.99 µM with NCI-H522 lung; 0.016 µM and < 0.0045 µM with LOX IMVI melanoma; 18 µM with OVCAR-3 ovarian. For the same molecule, the TGI in the test on T-47D breast is 4.65 µM and 5.18 µM; in the test with BT-549 breast, 4.65 µM and > 45 µM; in the test with SW-620 colon, 4.65 µM and > 45 µM.

Regarding `ClCc1cccc(Cn2cnc3c(NC45CC6CC(CC(C6)C4)C5)ncnc32)c1`, the GI50 in the test with KM12 colon is 14.6 µM; in the test on DU-145 prostate it was 17.3 µM; with SF-539 CNS, 16.9 µM; in the test on NCI-H522 lung it was 17.4 µM; with LOX IMVI melanoma, 15.7 µM; in the test with OVCAR-3 ovarian it was 17.6 µM. Also, the GI50 was 15.1 µM in the test with T-47D breast, 12.8 µM in the test with BT-549 breast, 19.1 µM in the test on SW-620 colon and 15.9 µM in the test with SF-295 CNS. Moreover, the TGI with KM12 colon came out at 30.6 µM; in the test on DU-145 prostate, 46.6 µM; in the test with SF-539 CNS, 32.4 µM; in the test with NCI-H522 lung, 39.2 µM; with LOX IMVI melanoma, 31.7 µM; with OVCAR-3 ovarian it was 35.9 µM. Further, the TGI is 36.6 µM in the test on T-47D breast, 29.4 µM in the test with BT-549 breast, 46.2 µM with SW-620 colon and 33.3 µM in the test with SF-295 CNS.

In the case of `COc1ccc(N2C(=O)CC(Cl)C2=O)cc1` (centres undefined), the TGI in the test on DU-145 prostate is more than 100 µM; in the test on SF-539 CNS, 32.5 µM; with NCI-H522 lung, 36.5 µM; in the test on LOX IMVI melanoma, 58.9 µM; in the test on OVCAR-3 ovarian, 28.7 µM; with T-47D breast it was 38.4 µM. Also, the results for the TGI with BT-549 breast and in the test on SW-620 colon were more than 100 µM and 35.2 µM, respectively.

As to `CN1CCN(CCCN)CC1`, the TGI in the test on KM12 colon, in the test with DU-145 prostate, in the test on NCI-H522 lung, with LOX IMVI melanoma, in the test with OVCAR-3 ovarian and in the test on T-47D breast was more than 100 µM each time. Besides, the TGI in the test on BT-549 breast, in the test with SW-620 colon and with SF-295 CNS was more than 100 µM in each case.

Values taken from PubChem BioAssay (NCI).
